This assay has as its target T1, chimeric human H3 receptor (Homo sapiens, UniProt Q9Y5N1, E19D).
T1 construct: made in house; host or cells: Sf9 insect cells (baculovirus infection); P2 membrane preparation
The assay can be described thus: Chimeric human H3 receptor GTP binding assay (agonist-stimulated GTP-gamma35S binding, Example 7). Type of assay: biochemical. The conditions noted are these: read-out: Ki. Put shortly: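 Sf9 membranes co-expressing the chimeric receptor and heterotrimeric G-protein subunits, 35 μg protein per tube, in pH 7.4 Tris buffer with 10 μM GDP. Test compounds at 10^−10 to 10^−6 M with 1 μM histamine, 60 min at room temperature. Filter-bound GTP-gamma^35S read by scintillation; IC50 from non-linear regression of dose-response curves.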

Where [1] appears, read: Table II, assay of Example 7, "*" in Ki.
Setting [2] is: Table II "Ki", symbol "*": Ki in the assay of Example 7.
Setting [3] is: assay of Example 7, "*" in Ki of Table II.
Where [4] appears, read: "*" in Ki of Table II, assay of Example 7.

Each structure is given as a SMILES string. Like-named read-outs stand apart in the source and are kept apart here.

Ki data for 14 compounds are collected here from US7851474B2, “Dipiperazinyl ketones and related analogues” (Neurogen Corporation, priority 2005, dated 2010).

The Ki is a measure of affinity in units of concentration, obtained from inhibition or displacement.

T1 sequence (Q9Y5N1 with tags, fused parts or gaps E19D): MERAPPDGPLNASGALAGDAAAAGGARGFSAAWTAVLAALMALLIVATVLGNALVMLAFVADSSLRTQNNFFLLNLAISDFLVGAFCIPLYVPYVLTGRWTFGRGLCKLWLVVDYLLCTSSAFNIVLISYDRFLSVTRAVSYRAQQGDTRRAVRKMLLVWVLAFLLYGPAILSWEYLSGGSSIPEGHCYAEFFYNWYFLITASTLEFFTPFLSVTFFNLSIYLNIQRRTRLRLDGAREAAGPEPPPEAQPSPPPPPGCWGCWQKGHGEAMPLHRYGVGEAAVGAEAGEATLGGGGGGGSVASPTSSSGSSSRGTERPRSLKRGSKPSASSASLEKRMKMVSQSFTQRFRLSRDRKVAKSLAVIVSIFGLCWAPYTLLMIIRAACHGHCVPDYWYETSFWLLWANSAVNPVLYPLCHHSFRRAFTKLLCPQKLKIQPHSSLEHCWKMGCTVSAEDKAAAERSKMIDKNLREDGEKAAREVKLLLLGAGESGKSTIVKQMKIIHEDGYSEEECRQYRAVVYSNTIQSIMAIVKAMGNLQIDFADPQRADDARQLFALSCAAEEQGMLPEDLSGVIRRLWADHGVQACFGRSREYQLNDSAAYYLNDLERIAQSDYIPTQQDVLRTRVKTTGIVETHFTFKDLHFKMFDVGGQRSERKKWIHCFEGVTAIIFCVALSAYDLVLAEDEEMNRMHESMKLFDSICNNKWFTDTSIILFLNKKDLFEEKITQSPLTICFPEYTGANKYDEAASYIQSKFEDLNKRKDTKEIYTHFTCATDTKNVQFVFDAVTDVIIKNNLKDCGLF

As to `O=C(CN1CCN(c2ccc(-c3ccc(F)c(Cl)c3)nn2)CC1)N1CCN(C2CCC2)CC1` [Compound 987, 3-(3-chloro-4-fluorophenyl)-6-{4-[2-(4-cyclobutylpiperazin-1-yl)-2-oxoethyl]piperazin-1-yl}pyridazine], under setting [1], the Ki is less than 1 µM. With `CCC(C)N1CCN(C(=O)CN2CCC(N3CCCC3)CC2)CC1` (centres unmarked) [Compound 858, 1-sec-butyl-4-[(4-pyrrolidin-1-ylpiperidin-1-yl)acetyl]piperazine], the inhibition constant (Ki) under setting [2] was less than 1 µM. For `O=C(CN1CCN(c2ccc(-c3ccc(Cl)cc3)nn2)CC1)N1CCN(C2CCC2)CC1` [Compound 991, 3-(4-chlorophenyl)-6-{4-[2-(4-cyclobutylpiperazin-1-yl)-2-oxoethyl]piperazin-1-yl}pyridazine], the inhibition constant (Ki) under setting [1] is less than 1 µM. `CCCCNC(=O)c1ccc(N2CCN(CC(=O)N3CCN(C4CCC4)CC3)CC2)nc1` [Compound 1265, N-butyl-6-{4-[2-(4-cyclobutylpiperazin-1-yl)-2-oxoethyl]piperazin-1-yl}nicotinamide]: the Ki under setting [3] is less than 1 µM. In the case of `CCOC(=O)c1ccc(N2CCN(CC(=O)N3CCN(C4CCC4)CC3)CC2)cc1` [Compound 1201, ethyl 4-{4-[2-(4-cyclobutylpiperazin-1-yl)-2-oxoethyl]piperazin-1-yl}benzoate], the Ki under setting [3] was less than 1 µM. Consider `CC(=O)c1ccc(-c2ccc(N3CCN(CC(=O)N4CCN(C5CCC5)CC4)CC3)nn2)cc1` [Compound 459, 1-[4-(6-{4-[2-(4-cyclobutylpiperazin-1-yl)-2-oxoethyl]piperazin-1-yl}pyridazin-3-yl)phenyl]ethanone], for which the Ki under setting [4] is less than 1 µM. Consider `O=C(CN1CCN(c2ccc(-c3ccncc3)nn2)CC1)N1CCN(C2CCC2)CC1` [Compound 1000, 3-{4-[2-(4-cyclobutylpiperazin-1-yl)-2-oxoethyl]piperazin-1-yl}-6-pyridin-4-ylpyridazine], for which the Ki under setting [1] was less than 1 µM. Take `O=C(CN1CCN(c2ccc(-c3ccc4c(c3)OCO4)nn2)CC1)N1CCN(C2CCC2)CC1` [Compound 986, 3-(1,3-benzodioxol-5-yl)-6-{4-[2-(4-cyclobutylpiperazin-1-yl)-2-oxoethyl]piperazin-1-yl}pyridazine]: under setting [1], the Ki is less than 1 µM. `CC(=O)c1cnc(N2CCN(CC(=O)N3CCN(C4CCC4)CC3)CC2)cn1` [Compound 362, 1-(5-{4-[2-(4-cyclobutylpiperazin-1-yl)-2-oxoethyl]piperazin-1-yl}pyrazin-2-yl)ethanone]: the Ki (assay of Example 7, symbol * in column headed Ki of Table II) was less than 1 µM. As for `O=C(NCC1CCCCC1)c1ccc(N2CCN(CC(=O)N3CCN(C4CCC4)CC3)CC2)cc1` [Compound 1144, 4-{4-[2-(4-cyclobutylpiperazin-1-yl)-2-oxoethyl]piperazin-1-yl}-N-(cyclohexylmethyl) benzamide], under setting [3], the Ki is less than 1 µM. `COc1cccc(OC)c1-c1cnc(N2CCN(CC(=O)N3CCN(C4CCC4)CC3)CC2)cn1` [Compound 970, 2-{4-[2-(4-cyclobutylpiperazin-1-yl)-2-oxoethyl]piperazin-1-yl}-5-(2,6-dimethoxyphenyl) pyrazine]: the Ki under setting [1] was less than 1 µM. For `COc1ccc(-c2ccc(N3CCN(CC(=O)N4CCN(C5CCC5)CC4)CC3)cc2)cc1` [Compound 781, 1-cyclobutyl-4-{[4-(4′-methoxybiphenyl-4-yl)piperazin-1-yl]acetyl}piperazine], the Ki under setting [2] is less than 1 µM. Consider `CC(C)N1CCN(C(=O)CN2CCN(c3ccc(Cl)c(C(F)(F)F)c3)CC2)CC1` [Compound 467, 1-[4-chloro-3-(trifluoromethyl)phenyl]-4-[2-(4-isopropylpiperazin-1-yl)-2-oxoethyl]piperazine], for which, under setting [4], the Ki was less than 1 µM. Take `COc1ccc(C)cc1-c1ccc(N2CCN(CC(=O)N3CCN(C4CCC4)CC3)CC2)nn1` [Compound 1046, 3-{4-[2-(4-cyclobutylpiperazin-1-yl)-2-oxoethyl]piperazin-1-yl}-6-(2-methoxy-5-methylphenyl) pyridazine]: the Ki under setting [1] was less than 1 µM.
